Experimental data published in patent US20080063668A1, “Nitroimidazole and terconazole composition and method” (priority 2006, published 2008).

Tests used:
Test in all cases: Inhibition of bacteria growth, drug dilution tubes, anaerobic
Format in all cases: cell-based
[1] = system: Gardnerella vaginalis ATCC 14018; parameters: key: (+) for growth; (−) for no growth; (±) for suboptimal growth after an initial observation of growth
Atopobium vaginae BAA-55 = system: Atopobium vaginae BAA-55; parameters: key to growth: (+) for growth; (−) for no growth; (±) for suboptimal growth after an initial observation of growth
Experimental: (§1) Serial dilutions of tinidazole and terconazole were prepared by adding measured amounts of each substance to water (both individually and in combination). Seven bacterial organisms that are common pathogens in bacterial vaginosis were grown anaerobically in the medium as listed in Table 4 under a N2/H2/CO2 (85:5:10) head space atmosphere. [table] These cultures were diluted to a 0.5 McFarland standard prior to inoculation of drug dilution tubes. One (1) mL of the 0.5 McFarland preparation was inoculated to an anaerobically prepared test tube containing 0.8 mL of Difco anaerobic medium (DAMM) and 0.2 mL of appropriate diluted antimicrobial or antimicrobial combination for a total of 2 mL. The inoculated tubes were then incubated at 37° C. and monitored daily for growth. Growth was scored with a (+) for growth, (−) for no growth, and (±) for suboptimal growth after an initial observation of growth. Tinidazole is abbreviated as TNZ and terconazole is abbreviated as TER in Tables 5 through 11.

[2] = system: Gardnerella vaginalis ATCC 14019; parameters: key to growth: (+) for growth; (−) for no growth; (±) for suboptimal growth after an initial observation of growth
Experimental: as §1

Structure (SMILES): CCS(=O)(=O)CCn1c([N+](=O)[O-])cnc1C [TNZ, 1-[2-(ethylsulfonyl)ethyl]-2-methyl-5-nitroimidazole]
- growth ([1]; TNZ 2 μg/ml, DAY 1): (+)
- growth ([1]; TNZ 2 μg/ml, DAY 2): (+)
- growth ([1]; TNZ 2 μg/ml, DAY 3): (+)
- growth ([1]; TNZ 2 μg/ml, DAY 4): (+)
- growth ([1]; TNZ 2 μg/ml, DAY 5): (+)
- growth ([1]; TNZ 3.9 μg/ml, DAY 1): (+)
- growth ([1]; TNZ 3.9 μg/ml, DAY 2): (+)
- growth ([1]; TNZ 3.9 μg/ml, DAY 3): (+)
- growth ([1]; TNZ 3.9 μg/ml, DAY 4): (+)
- growth ([1]; TNZ 3.9 μg/ml, DAY 5): (+)
- growth ([1]; TNZ 7.8 μg/ml, DAY 1): (−)
- growth ([1]; TNZ 7.8 μg/ml, DAY 2): (+)
- growth ([1]; TNZ 7.8 μg/ml, DAY 3): (+)
- growth ([1]; TNZ 7.8 μg/ml, DAY 4): (+)
- growth ([1]; TNZ 7.8 μg/ml, DAY 5): (+)
- growth ([1]; TNZ 15.6 μg/ml, DAY 1): (−)
- growth ([1]; TNZ 15.6 μg/ml, DAY 2): (+)
- growth ([1]; TNZ 15.6 μg/ml, DAY 3): (+)
- growth ([1]; TNZ 15.6 μg/ml, DAY 4): (+)
- growth ([1]; TNZ 15.6 μg/ml, DAY 5): (+)
- growth ([1]; TNZ 31.3 μg/ml, DAY 1): (−)
- growth ([1]; TNZ 31.3 μg/ml, DAY 2): (−)
- growth ([1]; TNZ 31.3 μg/ml, DAY 3): (−)
- growth ([1]; TNZ 31.3 μg/ml, DAY 4): (−)
- growth ([1]; TNZ 31.3 μg/ml, DAY 5): (−)
- growth ([1]; TNZ 62.5 μg/ml, DAY 1): (−)
- growth ([1]; TNZ 62.5 μg/ml, DAY 2): (−)
- growth ([1]; TNZ 62.5 μg/ml, DAY 3): (−)
- growth ([1]; TNZ 62.5 μg/ml, DAY 4): (−)
- growth ([1]; TNZ 62.5 μg/ml, DAY 5): (−)
- growth ([1]; TNZ 125 μg/ml, DAY 1): (−)
- growth ([1]; TNZ 125 μg/ml, DAY 2): (−)
- growth ([1]; TNZ 125 μg/ml, DAY 3): (−)
- growth ([1]; TNZ 125 μg/ml, DAY 4): (−)
- growth ([1]; TNZ 125 μg/ml, DAY 5): (−)
- growth ([1]; TNZ 250 μg/ml, DAY 1): (−)
- growth ([1]; TNZ 250 μg/ml, DAY 2): (−)
- growth ([1]; TNZ 250 μg/ml, DAY 3): (−)
- growth ([1]; TNZ 250 μg/ml, DAY 4): (−)
- growth ([1]; TNZ 250 μg/ml, DAY 5): (−)
- growth ([1]; TNZ 500 μg/ml, DAY 1): (−)
- growth ([1]; TNZ 500 μg/ml, DAY 2): (−)
- growth ([1]; TNZ 500 μg/ml, DAY 3): (−)
- growth ([1]; TNZ 500 μg/ml, DAY 4): (−)
- growth ([1]; TNZ 500 μg/ml, DAY 5): (−)
- growth (Atopobium vaginae BAA-55; TNZ 2 μg/ml, DAY 1): (+)
- growth (Atopobium vaginae BAA-55; TNZ 2 μg/ml, DAY 2): (+)
- growth (Atopobium vaginae BAA-55; TNZ 2 μg/ml, DAY 3): (+)
- growth (Atopobium vaginae BAA-55; TNZ 2 μg/ml, DAY 4): (+)
- growth (Atopobium vaginae BAA-55; TNZ 2 μg/ml, DAY 5): (+)
- growth (Atopobium vaginae BAA-55; TNZ 3.9 μg/ml, DAY 1): (+)
- growth (Atopobium vaginae BAA-55; TNZ 3.9 μg/ml, DAY 2): (+)
- growth (Atopobium vaginae BAA-55; TNZ 3.9 μg/ml, DAY 3): (+)
- growth (Atopobium vaginae BAA-55; TNZ 3.9 μg/ml, DAY 4): (+)
- growth (Atopobium vaginae BAA-55; TNZ 3.9 μg/ml, DAY 5): (+)
- growth (Atopobium vaginae BAA-55; TNZ 7.8 μg/ml, DAY 1): (+)
- growth (Atopobium vaginae BAA-55; TNZ 7.8 μg/ml, DAY 2): (+)
- growth (Atopobium vaginae BAA-55; TNZ 7.8 μg/ml, DAY 3): (+)
- growth (Atopobium vaginae BAA-55; TNZ 7.8 μg/ml, DAY 4): (+)
- growth (Atopobium vaginae BAA-55; TNZ 7.8 μg/ml, DAY 5): (+)
- growth (Atopobium vaginae BAA-55; TNZ 15.6 μg/ml, DAY 1): (−)
- growth (Atopobium vaginae BAA-55; TNZ 15.6 μg/ml, DAY 2): (+)
- growth (Atopobium vaginae BAA-55; TNZ 15.6 μg/ml, DAY 3): (+)
- growth (Atopobium vaginae BAA-55; TNZ 15.6 μg/ml, DAY 4): (+)
- growth (Atopobium vaginae BAA-55; TNZ 15.6 μg/ml, DAY 5): (+)
- growth (Atopobium vaginae BAA-55; TNZ 31.3 μg/ml, DAY 1): (−)
- growth (Atopobium vaginae BAA-55; TNZ 31.3 μg/ml, DAY 2): (+)
- growth (Atopobium vaginae BAA-55; TNZ 31.3 μg/ml, DAY 3): (+)
- growth (Atopobium vaginae BAA-55; TNZ 31.3 μg/ml, DAY 4): (+)
- growth (Atopobium vaginae BAA-55; TNZ 31.3 μg/ml, DAY 5): (+)
- growth (Atopobium vaginae BAA-55; TNZ 62.5 μg/ml, DAY 1): (−)
- growth (Atopobium vaginae BAA-55; TNZ 62.5 μg/ml, DAY 2): (+)
- growth (Atopobium vaginae BAA-55; TNZ 62.5 μg/ml, DAY 3): (+)
- growth (Atopobium vaginae BAA-55; TNZ 62.5 μg/ml, DAY 4): (+)
- growth (Atopobium vaginae BAA-55; TNZ 62.5 μg/ml, DAY 5): (+)
- growth (Atopobium vaginae BAA-55; TNZ 125 μg/ml, DAY 1): (−)
- growth (Atopobium vaginae BAA-55; TNZ 125 μg/ml, DAY 2): (+)
- growth (Atopobium vaginae BAA-55; TNZ 125 μg/ml, DAY 3): (+)
- growth (Atopobium vaginae BAA-55; TNZ 125 μg/ml, DAY 4): (+)
- growth (Atopobium vaginae BAA-55; TNZ 125 μg/ml, DAY 5): (+)
- growth (Atopobium vaginae BAA-55; TNZ 250 μg/ml, DAY 1): (−)
- growth (Atopobium vaginae BAA-55; TNZ 250 μg/ml, DAY 2): (+)
- growth (Atopobium vaginae BAA-55; TNZ 250 μg/ml, DAY 3): (+)
- growth (Atopobium vaginae BAA-55; TNZ 250 μg/ml, DAY 4): (+)
- growth (Atopobium vaginae BAA-55; TNZ 250 μg/ml, DAY 5): (+)
- growth (Atopobium vaginae BAA-55; TNZ 500 μg/ml, DAY 1): (−)
- growth (Atopobium vaginae BAA-55; TNZ 500 μg/ml, DAY 2): (−)
- growth (Atopobium vaginae BAA-55; TNZ 500 μg/ml, DAY 3): (+)
- growth (Atopobium vaginae BAA-55; TNZ 500 μg/ml, DAY 4): (+)
- growth (Atopobium vaginae BAA-55; TNZ 500 μg/ml, DAY 5): (+)
- growth ([2]; TNZ 2 μg/ml, DAY 1): (+)
- growth ([2]; TNZ 2 μg/ml, DAY 2): (+)
- growth ([2]; TNZ 2 μg/ml, DAY 3): (+)
- growth ([2]; TNZ 2 μg/ml, DAY 4): (+)
- growth ([2]; TNZ 2 μg/ml, DAY 5): (+)
- growth ([2]; TNZ 3.9 μg/ml, DAY 1): (+)
- growth ([2]; TNZ 3.9 μg/ml, DAY 2): (+)
- growth ([2]; TNZ 3.9 μg/ml, DAY 3): (+)
- growth ([2]; TNZ 3.9 μg/ml, DAY 4): (+)
- growth ([2]; TNZ 3.9 μg/ml, DAY 5): (+)
- growth ([2]; TNZ 7.8 μg/ml, DAY 1): (+)
- growth ([2]; TNZ 7.8 μg/ml, DAY 2): (+)
- growth ([2]; TNZ 7.8 μg/ml, DAY 3): (+)
- growth ([2]; TNZ 7.8 μg/ml, DAY 4): (+)
- growth ([2]; TNZ 7.8 μg/ml, DAY 5): (+)
- growth ([2]; TNZ 15.6 μg/ml, DAY 1): (+)
- growth ([2]; TNZ 15.6 μg/ml, DAY 2): (+)
- growth ([2]; TNZ 15.6 μg/ml, DAY 3): (+)
- growth ([2]; TNZ 15.6 μg/ml, DAY 4): (+)
- growth ([2]; TNZ 15.6 μg/ml, DAY 5): (+)
- growth ([2]; TNZ 31.3 μg/ml, DAY 1): (+)
- growth ([2]; TNZ 31.3 μg/ml, DAY 2): (+)
- growth ([2]; TNZ 31.3 μg/ml, DAY 3): (+)
- growth ([2]; TNZ 31.3 μg/ml, DAY 4): (+)
- growth ([2]; TNZ 31.3 μg/ml, DAY 5): (+)
- growth ([2]; TNZ 62.5 μg/ml, DAY 1): (+)
- growth ([2]; TNZ 62.5 μg/ml, DAY 2): (+)
- growth ([2]; TNZ 62.5 μg/ml, DAY 3): (+)
- growth ([2]; TNZ 62.5 μg/ml, DAY 4): (+)
- growth ([2]; TNZ 62.5 μg/ml, DAY 5): (+)
- growth ([2]; TNZ 125 μg/ml, DAY 1): (+)
- growth ([2]; TNZ 125 μg/ml, DAY 2): (+)
- growth ([2]; TNZ 125 μg/ml, DAY 3): (+)
- growth ([2]; TNZ 125 μg/ml, DAY 4): (+)
- growth ([2]; TNZ 125 μg/ml, DAY 5): (+)
- growth ([2]; TNZ 250 μg/ml, DAY 1): (+)
- growth ([2]; TNZ 250 μg/ml, DAY 2): (+)
- growth ([2]; TNZ 250 μg/ml, DAY 3): (+)
- growth ([2]; TNZ 250 μg/ml, DAY 4): (+)
- growth ([2]; TNZ 250 μg/ml, DAY 5): (+)
- growth ([2]; TNZ 500 μg/ml, DAY 1): (+)
- growth ([2]; TNZ 500 μg/ml, DAY 2): (+)
- growth ([2]; TNZ 500 μg/ml, DAY 3): (+)
- growth ([2]; TNZ 500 μg/ml, DAY 4): (+)
- growth ([2]; TNZ 500 μg/ml, DAY 5): (+)
